According to the supplement of paper PMC12370961:

Assays:
Test in all cases: differential drug sensitivity score (dDSS) relative to sarcoma reference cohort mean DSS (DSS units (0-100 scale difference)); higher = more selective sensitivity than reference sarcomas
Details in all cases: exposure time: 72 h; concentration range: 10-10000 nM
[1] = tested on: CDS-ZH001-2 (patient-derived CIC-DUX4 sarcoma tumoroid)
Procedure: (§1)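 Drug response profiling of patient-derived Ewing sarcoma and CIC::DUX4 sarcoma tumoroid models (or cells tested directly after isolation from the tumor, 'direct'). The DSS is the normalised AUC (0-100); dDSS is the sample DSS minus the mean DSS of a 34-sarcoma reference cohort profiled in the same lab.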

[2] = tested on: CDS-ZH001 (patient-derived CIC-DUX4 sarcoma tumoroid)
Procedure: as §1

[3] = tested on: CDS-ZH002 direct (CIC-DUX4 sarcoma cells right after isolation)
Procedure: as §1

[4] = tested on: CDS-ZH002 (patient-derived CIC-DUX4 sarcoma tumoroid)
Procedure: as §1

[5] = tested on: CDS-ZH003 (patient-derived CIC-DUX4 sarcoma tumoroid)
Procedure: as §1

[6] = tested on: ES-ZH001 (patient-derived Ewing sarcoma tumoroid)
Procedure: as §1

[7] = tested on: ES-ZH002 (patient-derived Ewing sarcoma tumoroid)
Procedure: as §1

[8] = tested on: ES-ZH004 (patient-derived Ewing sarcoma tumoroid)
Procedure: as §1

[9] = tested on: ES-ZH007 (patient-derived Ewing sarcoma tumoroid)
Procedure: as §1

[10] = tested on: ES-ZH008 (patient-derived Ewing sarcoma tumoroid)
Procedure: as §1

[11] = tested on: ES-ZH009 (patient-derived Ewing sarcoma tumoroid)
Procedure: as §1

[12] = tested on: ES-ZH016 direct (Ewing sarcoma cells right after isolation)
Procedure: as §1

[13] = tested on: ES-ZH016 (patient-derived Ewing sarcoma tumoroid)
Procedure: as §1

Structure (SMILES) | differential drug sensitivity score [1] | differential drug sensitivity score [2] | differential drug sensitivity score [3] | differential drug sensitivity score [4] | differential drug sensitivity score [5] | differential drug sensitivity score [6] | differential drug sensitivity score [7] | differential drug sensitivity score [8] | differential drug sensitivity score [9] | differential drug sensitivity score [10] | differential drug sensitivity score [11] | differential drug sensitivity score [12] | differential drug sensitivity score [13]
Nc1nc(Cl)nc2c1ncn2[C@@H]1O[C@H](CO)[C@@H](O)[C@@H]1F [Clofarabine] | -1.8 | -12 | -4.3 | -4.3 | -4.8 | 17.7 | 20.2 | 4.8 | 19 | 3.6 | 3.9 | 8.4 | 15.7
Nc1ccn([C@@H]2O[C@H](CO)[C@@H](O)C2(F)F)c(=O)n1 [Gemcitabine] | 1.8 | 4.5 | -7 | -4.9 | -7 | 23.1 | 24.8 | 20.1 | 24.5 | 18.7 | 19.6 | 9.7 | 22.4
CC(C)C[C@H](NC(=O)CNC(=O)c1cc(Cl)ccc1Cl)B(O)O [Ixazomib] | 3.6 | 9.5 | 9.9 | 1.8 | 3.2 | 5.2 | 4.9 | 3.5 | 4.9 | 0.7 | 7.6 | -2.2 | -2.9
Oc1ccc(/C=C/c2cc(O)cc(O)c2)cc1 [Resveratrol] | 0 | 1.4 | 0.1 | -2 | -4.6 | 11.6 | 16.5 | 10.1 | 0.9 | 13.8 | 7 | 4.7 | 4.4
N#CCNC(=O)c1ccc(-c2ccnc(Nc3ccc(N4CCOCC4)cc3)n2)cc1 [Momelotinib] | -1.2 | -1.2 | -1.2 | -1.2 | -1.2 | 4 | 3.7 | -1.2 | -1.2 | -0.8 | 0.5 | -0.5 | 2.6
Nc1ccn([C@@H]2O[C@H](CO)[C@@H](O)[C@@H]2O)c(=O)n1 [Cytarabine] | 3.3 | -12.4 | -8.5 | 1.3 | 0.8 | 8.3 | 21.1 | 4.4 | 17 | 22.9 | -6.1 | 11.6 | 12.5
O=C(c1ccc(F)c(F)c1Nc1ccc(I)cc1F)N1CC(O)([C@@H]2CCCCN2)C1 [Cobimetinib] | -5.7 | -5.4 | -3.5 | -6.7 | -6.7 | 1.4 | 2.5 | 0 | -3 | -6.2 | -4.5 | -3.5 | -3.8
CCNC(=O)C[C@@H]1N=C(c2ccc(Cl)cc2)c2cc(OC)ccc2-n2c(C)nnc21 [Molibresib] | -1 | -1.2 | -3.9 | -5.5 | -5.3 | 0.4 | 5.5 | -0.4 | -1.8 | 6.8 | 5.5 | 4.2 | 0.4
CNCc1ccc(-c2[nH]c3cc(F)cc4c3c2CCNC4=O)cc1 [Rucaparib] | 7.1 | -4 | -0.8 | -4 | -4.1 | 6.7 | 17.9 | 5.6 | 4.3 | 11.5 | 1.4 | 21 | 4.9
N#Cc1ccnc(N2C(=O)CC[C@H]2C(=O)N(c2cncc(F)c2)[C@H](C(=O)NC2CC(F)(F)C2)c2ccccc2Cl)c1 [Ivosidenib] | -2.1 | -2.1 | -2.1 | -2.1 | -2.1 | -2.1 | -2.1 | -2.1 | -2.1 | 7.8 | -2.1 | 18.2 | -2.1
CN(C)/N=N/c1[nH]cnc1C(N)=O [Dacarbazine] | -0.7 | -0.8 | -0.8 | -0.8 | -0.7 | -0.7 | 7.5 | 0.1 | -0.8 | 2.8 | 0.9 | -0.8 | -0.8
O=C(CCCCCCC(=O)Nc1ccccc1)NO [Vorinostat] | 0.5 | -4 | -0.2 | -3.6 | 3.3 | 9.5 | 8 | 7.3 | 6.3 | 5.1 | 6.6 | 5.3 | -0.7
CC(C)C[C@H](NC(=O)[C@H](CCc1ccccc1)NC(=O)CN1CCOCC1)C(=O)N[C@@H](Cc1ccccc1)C(=O)N[C@@H](CC(C)C)C(=O)[C@@]1(C)CO1 [Carfilzomib] | 6 | 5.3 | 5.5 | 0.7 | 4.4 | 8.2 | 9.9 | 10.9 | 12.2 | 4 | 10.8 | 6.8 | 4.3
CN[C@@H](C)C(=O)N[C@H](C(=O)N1CCC[C@H]1c1nc(C(=O)c2ccc(F)cc2)cs1)C1CCCCC1 [LCL161] | 4.5 | 11.6 | 1 | -1.3 | 3.3 | -1.3 | -1.3 | -0.7 | -0.2 | -0.8 | -1.3 | 0.8 | -1.3
CCc1c2c(nc3ccc(O)cc13)-c1cc3c(c(=O)n1C2)COC(=O)[C@]3(O)CC [SN-38] | 5.2 | 7 | -0.9 | -1 | -1.4 | 13.2 | 15.3 | 14.9 | 17.1 | 8.8 | 15.7 | 4.9 | 16.4
CC[C@H](NC(=O)[C@H](C)NC)C(=O)N1C[C@@H](O)C[C@H]1Cc1c(-c2[nH]c3cc(F)ccc3c2C[C@@H]2C[C@H](O)CN2C(=O)[C@H](CC)NC(=O)[C@H](C)NC)[nH]c2cc(F)ccc12 [Birinapant] | 16.6 | 21.9 | 4.6 | -1.8 | 13 | -0.8 | -0.4 | -2.3 | -0.4 | -0.3 | 5.7 | 4.6 | -1.3

Structure (SMILES) | differential drug sensitivity score [1] | differential drug sensitivity score [2] | differential drug sensitivity score [3] | differential drug sensitivity score [4] | differential drug sensitivity score [5] | differential drug sensitivity score [6] | differential drug sensitivity score [7] | differential drug sensitivity score [8] | differential drug sensitivity score [9] | differential drug sensitivity score [10] | differential drug sensitivity score [11] | differential drug sensitivity score [12] | differential drug sensitivity score [13]
CC(C)C[C@H](NC(=O)[C@H](Cc1ccccc1)NC(=O)c1cnccn1)B(O)O [Bortezomib] | 6 | 6.9 | 6.9 | 3.6 | 6 | 3.9 | 4.7 | 5.5 | 6.4 | -0.2 | 7 | -2.6 | -5.9
Clc1ccc(NN=C(c2ccccc2)c2ccccn2)nc1 [JIB04] | 0.6 | -4.4 | -4.8 | 1.4 | -2.7 | -6.1 | -6 | -4.3 | 0.7 | -2.5 | -2.6 | -0.6 | 1.5
NC(=O)C1CCCc2c1[nH]c1ccc(Cl)cc21 (stereo not drawn) [Selisistat] | -1.3 | -0.5 | -1.4 | -0.9 | -2 | -1.4 | -1 | -1.3 | -1.4 | 8.9 | -0.7 | -1.3 | -0.9
S=c1[nH]cnc2nc[nH]c12 [Mercaptopurine] | 12 | 3.8 | -1.8 | -1.3 | -5 | 0.9 | 0.3 | -4.2 | -0.4 | -1.6 | 7.4 | 4.9 | 2.9
O=C(NCc1cccc(O)c1)Nc1nc(-c2ccncc2)cs1 [RKI1447] | -1 | -0.6 | -1.2 | -1 | -0.9 | -1.2 | 6.9 | -0.2 | -1.1 | -1.2 | 4.8 | -1 | 0.4
NC(=O)Nc1cc(-c2cccc(F)c2)sc1C(=O)N[C@H]1CCCNC1 [AZD7762] | 0 | 6.3 | -1 | -0.5 | -3.8 | 7.4 | 7.1 | -2.9 | 8.8 | 8.1 | 8.8 | 10.6 | 4.7
CN[C@@H](C)C(=O)N[C@H](C(=O)N1CCC[C@H]1C(=O)Nc1snnc1-c1ccccc1)C1CCCCC1 [GDC0152] | 7.6 | 12.4 | 5.8 | -2.5 | 11.1 | -3.6 | 1.9 | 4.8 | -0.8 | 10.7 | 4.5 | 0.6 | -3.6
COc1cc(Nc2ncc3c(n2)-c2ccc(Cl)cc2C(c2c(F)cccc2OC)=NC3)ccc1C(=O)O [Alisertib] | 5.5 | -3.4 | -7.3 | -3.7 | -0.9 | 20 | 21.5 | -11.3 | 8.5 | 8.2 | 15.8 | 17.2 | 15.3
NC1(c2ccc(-c3nc4ccn5c(=O)[nH]nc5c4cc3-c3ccccc3)cc2)CCC1 [MK-2206] | 10.4 | 3.7 | 0.7 | -3.1 | -2.3 | 1.8 | 14 | 6.8 | 3.4 | 13.3 | 4.8 | 15.8 | 0.5
CN(C)C/C=C/C(=O)Nc1ccc(C(=O)Nc2cccc(Nc3ncc(Cl)c(-c4c[nH]c5ccccc45)n3)c2)cc1 [THZ1] | 6.7 | 0 | 9.2 | 0.9 | -8.9 | 4.2 | 4.3 | 11.4 | 0.1 | 8.6 | 7.4 | 9 | 10.2
Cc1ccc(NC(=O)c2ccc(CN3CCN(C)CC3)cc2)cc1Nc1nccc(-c2cccnc2)n1 [Imatinib] | -0.8 | 0.4 | -1.3 | -1.5 | 12.4 | -2.9 | 3.2 | 0.7 | -1.3 | 0.1 | -3.3 | 1.6 | -3.3
CS(=O)(=O)c1ccc(C(=O)Nc2ccc(Cl)c(-c3ccccn3)c2)c(Cl)c1 [Vismodegib] | -2.6 | -2.7 | 1.1 | -2.4 | -6.9 | 4.7 | 7.1 | 5.2 | 0.4 | 2.8 | -2.6 | -2.7 | 1.4
O=[P@]1(N(CCCl)CCCl)N[C@H](OO)CCO1 [Hydroperoxycyclophosphamide] | -2.3 | -0.7 | -3.6 | -3.6 | -4.1 | 1.7 | 7.7 | 6.4 | 0.2 | 6.5 | -1 | 4.6 | 2.2
Nc1cccc2c1CN(C1CCC(=O)NC1=O)C2=O (stereo not drawn) [Lenalidomide] | -1.2 | -1.2 | -1.2 | -1.2 | -1.2 | 0.4 | 1.8 | 7.7 | -1.2 | 7.4 | -1.2 | -1.2 | -1.2
Oc1nc(-c2ccc(C(F)(F)F)cc2)nc2c1CSCC2 [XAV-939] | 3.9 | -2.2 | 4.3 | 1.6 | 7.7 | -2.2 | -1.2 | -2.2 | -1.4 | -2.2 | -0.6 | 3.7 | 2.7
